Holding throughout (type): cell-based
Assay [1] relates to immortalized normal human bronchial epithelial BEAS-2B cells. The assay is described as follows: IL-17A- or IL-17F-mediated cytokine response by BEAS-2B cells. The note with it: 48 h. Here is the method:
The virally immortalized, normal human bronchial epithelial cell line BEAS-2B was purchased from ATCC (Manassas, Va.). Primary bronchial epithelial cells isolated from a patient diagnosed with asthma were obtained from Lonza (Allendale, N.J.). Both cells were maintained in complete Bronchial Epithelial Cell Growth Medium (BEGM) (Lonza). Cells were seeded at 1e5 cells/ml and incubated at 37° C. in a humidified atmosphere at 5% CO2 overnight to adhere. Cells were pre-treated with test compounds (10 μM down by ⅕ in a 3- or 4-point serial dilution series) for 1 h at 37° C. in a humidified atmosphere at 5% CO2. DMSO at a final concentration of 0.1% served as the non-inhibited control. Budesonide (Selleck Chemicals, Houston, Tex.), a clinically approved glucocorticoid steroid for the treatment of asthma, was tested as a positive control at 0.25 μM. Cells were stimulated with 50 ng/ml of either human recombinant IL-17A or IL-17F (eBioscience, San Diego, Calif.), for 48 h. Supernatant was then collected and analyzed for cytokine concentrations using the Bio-Plex Pro Human Cytokine 17-Plex Panel (Bio-Rad Laboratories, Hercules, Calif.) according to the manufacturer's instructions. Magnetic beads were measured on the Bio-Plex MAGPIX multiplex reader instrument using the accompanying xPONENT 4.2 acquisition software (Bio-Rad Laboratories). Data were analyzed via the Bio-Plex Manager software v6.1 (Bio-Rad Laboratories). For the primary asthmatic bronchial epithelial cells, five (+IL-17F) to thirteen (+IL-17A) cytokines were in range of detection under the conditions used. […] Select cytokines were analyzed for comparison using the BEAS-2B cell line.

Assay [2] relates to human CD4+ T cells. Description: Cytokines produced by human CD4+ T cells stimulated with PMA/ionomycin. The note with it: 10 μM compound, PMA/ionomycin 20 h. From the text: Freshly isolated human peripheral blood mononuclear cells (PBMCs) were purchased from Astarte Biologics (Redmond, Wash.). CD4+ T cells were isolated from the PBMCs using the EasySep Negative Selection Human CD4+ T Cell Enrichment Kit (Stemcell Technologies, Vancouver, Canada) according to manufacturer's instructions briefly as follows: Unwanted cells were specifically labeled with a cocktail of bispecific tetrameric antibody complexes (TAC) against dextran and cell surface antigens (CD8, CD14, CD16, CD19, CD20, CD36, CD56, CD66b, CD123, TCRγ/δ, glycophorin A). Labeled cells were then targeted for removal by incubation with dextran-coated magnetic particles, leaving the desired CD4+ T cells.
Human CD4+ T cells, isolated as shown in protocol A, were seeded at 2e6 cells/ml in RPMI 1640 containing 10% (v/v) charcoal-dextran treated, heat inactivated FBS (Omega Scientific, Tarzana, Calif.), 0.05 mM 2-Mercaptoethanol (Sigma-Aldrich, St. Louis, Mo.), and 1×Pen/Strep Amphotericin B (Lonza, Allendale, N.J.). Cells were pre-treated with test compounds (10 μM) for 1 h at 37° C. in a humidified atmosphere at 5% CO2. Cells were then stimulated with 50 ng/ml phorbol 12-myristate 13-acetate (PMA)(Sigma-Aldrich, St. Louis, Mo.)+1 μg/ml ionomycin (Life Technologies, Grand Island, N.Y.) for 20 h at 37° C. in a humidified atmosphere at 5% CO2. Supernatant was collected and analyzed using Bio-Plex Pro Human Th17 Cytokine 15-Plex Panel (Bio-Rad Laboratories, Hercules, Calif.) as per manufacturer's protocols. Magnetic beads were read on the Bio-Plex MAGPIX multiplex reader instrument using the accompanying xPONENT 4.2 acquisition software (Bio-Rad Laboratories, Hercules, Calif.). Data were analyzed via the Bio-Plex Manager software v6.1 (Bio-Rad Laboratories).
IL-1β, IL-2, IL-7, and IL-12 (p70) were below the limit of detection under conditions used. The concentrations of the observed analytes of the DMSO control, from top to bottom as listed, are as follows: 31, 585, 24178, 22, 48, 91, 728, 94, 156, 705, 15, 1045, 5501 pg/ml.

Assay [3] deals with diseased primary human lung fibroblasts. The assay is described as follows: Cytokine response by primary diseased human lung fibroblasts stimulated with IL-17A or IL-17F. The settings on record: Fibroblast, 48 h. Here is the method:
Primary lung fibroblasts isolated from a patient diagnosed with asthma were obtained from Lonza (Allendale, N.J.) and maintained in FGM-2 fibroblast growth medium (Lonza). Cells were seeded at 1e5 cells/ml and incubated at 37° C. in a humidified atmosphere at 5% CO2 overnight to adhere. Cells were pre-treated with test compounds (10 μM down by ⅕ in a 3- or 4-point serial dilution series) for 1 h at 37° C. in a humidified atmosphere at 5% CO2. DMSO at a final concentration of 0.1% served as the non-inhibited control. Cells were stimulated with 50 ng/ml of either human recombinant IL-17A or IL-17F (eBioscience, San Diego, Calif.), for 48 h. Supernatant was then collected and analyzed for cytokine concentrations using the Bio-Plex Pro Human Cytokine 17-Plex Panel (Bio-Rad Laboratories, Hercules, Calif.) according to the manufacturer's instructions. Magnetic beads were measured on the Bio-Plex MAGPIX multiplex reader instrument using the accompanying xPONENT 4.2 acquisition software (Bio-Rad Laboratories). Data were analyzed via the Bio-Plex Manager software v6.1 (Bio-Rad Laboratories). Only four (+IL-17F) to six (+IL-17A) cytokines were in range of detection under the conditions used.
G-CSF concentrations were below the limit of detection when cells were stimulated with IL-17F.

[4] abbreviates: +50 ng/ml IL-17A, read-out: EC50 values (μM), IL-6.
Setting [5] is: +50 ng/ml IL-17A, read-out: EC50 values (μM), IL-8.
[6] abbreviates: +50 ng/ml IL-17F, read-out: EC50 values (μM), IL-6.
[7] abbreviates: +50 ng/ml IL-17F, read-out: EC50 values (μM), IL-8.
Setting [8] is: read-out: Percent inhibition of G-CSF (relative to DMSO control).
The mark [9] stands for this setting: read-out: Percent inhibition of GM-CSF (relative to DMSO control).
Where [10] appears, read: read-out: Percent inhibition of IFNγ (relative to DMSO control).
[11] abbreviates: read-out: Percent inhibition of IL-4 (relative to DMSO control).
Setting [12] is: read-out: Percent inhibition of IL-5 (relative to DMSO control).
The mark [13] stands for this setting: read-out: Percent inhibition of IL-6 (relative to DMSO control).
[14] abbreviates: read-out: Percent inhibition of IL-8 (relative to DMSO control).
Setting [15] is: read-out: Percent inhibition of IL-10 (relative to DMSO control).
Where [16] appears, read: read-out: Percent inhibition of IL-13 (relative to DMSO control).
Setting [17] is: read-out: Percent inhibition of IL-17A (relative to DMSO control).
Setting [18] is: read-out: Percent inhibition of MCP-1 (relative to DMSO control).
[19] abbreviates: read-out: Percent inhibition of MIP-1β (relative to DMSO control).
The mark [20] stands for this setting: read-out: Percent inhibition of TNFα (relative to DMSO control).
[21] abbreviates: +50 ng/ml IL-17A, read-out: EC50 values (μM), G-CSF.
The mark [22] stands for this setting: +50 ng/ml IL-17A, read-out: EC50 values (μM), MCP-1.
[23] abbreviates: +50 ng/ml IL-17F, read-out: EC50 values (μM), MCP-1.

Where two headings read alike, the source gives them in different places.

A word on the EC50: it is the midpoint of the concentration-response curve. Usually inhibition stands for the change of the read-out against control, counted positive when it falls. In the case of `CCOc1cc(C(=O)N2CCC(N3CCCC3)CC2)ccc1Nc1cc2c(cn1)N(C)C(=O)c1ccccc1N2C` [Compound 46, 3-(2-Ethoxy-4-(4-(pyrrolidin-1-yl)piperidine-1-carbonyl)phenylamino)-5,11-dimethyl-5H-benzo[e]pyrido[3,4-b][1,4]diazepin-10(11H)-one], the EC50 in assay [1] (setting [4]) was 0.51 µM; in assay [1] (setting [5]), 0.4 µM; in assay [1] (setting [6]), 0.38 µM; in assay [1] (setting [7]), 0.32 µM. In addition, the inhibition at 10 µM is 26.4% in assay [2] (setting [8]); 96.7% in assay [2] (setting [9]); 18.3% in assay [2] (setting [10]); 11.7% in assay [2] (setting [11]); 49.1% in assay [2] (setting [12]); 89.3% in assay [2] (setting [13]). In addition, the inhibition at 10 µM in assay [2] (setting [14]) was -109%; in assay [2] (setting [15]) it was 97.3%; in assay [2] (setting [16]) it was 32.1%; in assay [2] (setting [17]), 52.2%; in assay [2] (setting [18]) it was 67.6%; in assay [2] (setting [19]) it was 63.9%. In assay [2] (setting [20]), the inhibition at 10 µM was 64%.
Turning to `CCOc1cc(C(=O)NCC2CC2)ccc1Nc1cc2c(cn1)N(C)C(=O)c1ccccc1N2C` [Compound 57], the inhibition at 10 µM in assay [2] (setting [8]) is 34.5%; in assay [2] (setting [9]), 95.9%; in assay [2] (setting [10]) it was 50.9%; in assay [2] (setting [11]), 31.4%; in assay [2] (setting [12]), 42.8%; in assay [2] (setting [13]) it was 91.1%. Further, the inhibition at 10 µM is -44.1% in assay [2] (setting [14]); 97.7% in assay [2] (setting [15]); 55.6% in assay [2] (setting [16]); 78.8% in assay [2] (setting [17]); 70.6% in assay [2] (setting [18]); 56.2% in assay [2] (setting [19]). The inhibition at 10 µM in assay [2] (setting [20]) was determined as 58.3%.
For the compound `CCOc1cc(C(=O)N2CCNCC2)ccc1Nc1cc2c(cn1)N(C)C(=O)c1ccccc1N2C` [Compound 62], the inhibition at 10 µM was 27.6% in assay [2] (setting [8]); 95.4% in assay [2] (setting [9]); 15.6% in assay [2] (setting [10]); -4.8% in assay [2] (setting [11]); 29.7% in assay [2] (setting [12]); 86.9% in assay [2] (setting [13]). Moreover, the inhibition at 10 µM in assay [2] (setting [14]) is -179%; in assay [2] (setting [15]), 97.2%; in assay [2] (setting [16]) it was 19.8%; in assay [2] (setting [17]), 49.7%; in assay [2] (setting [18]), 66.1%; in assay [2] (setting [19]), 66.9%. In assay [2] (setting [20]), the inhibition at 10 µM is 70.1%.
With `CCOc1cc(C(=O)N2CCC(N3CCN(C)CC3)CC2)ccc1Nc1cc2c(cn1)N(C)C(=O)c1occc1N2C` [Compound 65], the inhibition at 10 µM in assay [2] (setting [8]) worked out at 36.1%; in assay [2] (setting [9]) it was 89.5%; in assay [2] (setting [10]) it was 12.3%; in assay [2] (setting [11]), 10.1%; in assay [2] (setting [12]), 47.7%; in assay [2] (setting [13]), 87.7%. The inhibition at 10 µM worked out at 98% in assay [2] (setting [15]); 18.3% in assay [2] (setting [16]); 39.3% in assay [2] (setting [17]); 64.2% in assay [2] (setting [18]); 55.8% in assay [2] (setting [19]); 56.9% in assay [2] (setting [20]). The EC50 is 3.5 µM in assay [3] (setting [21]); 5.69 µM in assay [3] (setting [4]); 0.48 µM in assay [3] (setting [5]); 1.31 µM in assay [3] (setting [22]); 2.49 µM in assay [3] (setting [6]); 0.52 µM in assay [3] (setting [7]). For the same compound, the EC50 in assay [3] (setting [23]) was found to be 1.85 µM.
Take `CCOc1cc(C(=O)N2CC[C@@H](N(C)C)C2)ccc1Nc1cc2c(cn1)N(C)C(=O)c1ccccc1N2C` [Compound 115]: the EC50 in assay [1] (setting [4]) amounted to 0.21 µM; in assay [1] (setting [5]), 0.42 µM; in assay [1] (setting [6]), 0.14 µM; in assay [1] (setting [7]) it was 0.13 µM; in assay [3] (setting [21]) it was 0.86 µM; in assay [3] (setting [4]), 1.16 µM. Besides, the EC50 was below 0.08 µM in assay [3] (setting [5]); 0.35 µM in assay [3] (setting [22]); 0.95 µM in assay [3] (setting [6]); below 0.08 µM in assay [3] (setting [7]); 0.36 µM in assay [3] (setting [23]).

(Values after patent publication US20170008888A1 (KYORIN PHARMACEUTICAL CO., LTD., priority 2014, published 2017).)
